Laboratory results reported in the supplement of paper PMC10307832.

Key:
Experiment in all cases: relative viability (nuclei count vs DMSO), 5 days (fraction); higher = more cells survive
NCI-H596 = system: NCI-H596
Outline: (§1)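 Each reported value is a median over duplicate plates. It expresses relative viability: treated-well nuclei count divided by vehicle-well nuclei count. Lung cancer cell lines in 1536-well plates were dosed by pin tool a day after seeding, alone with one drug or with a fixed anchor-drug dose plus five library-drug doses (not always all listed) in √10 steps, and nuclei were counted after 5 days.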

NCI-H1793 = system: NCI-H1793
Outline: as §1

ChaGo-K-1 = system: ChaGo-K-1
Outline: as §1

NCI-H1395 = system: NCI-H1395
Outline: as §1

NCI-H1437 = system: NCI-H1437
Outline: as §1

NCI-H1944 = system: NCI-H1944
Outline: as §1

LCLC-97TM1 = system: LCLC-97TM1
Outline: as §1

NCI-H661 = system: NCI-H661
Outline: as §1

NCI-H2085 = system: NCI-H2085
Outline: as §1

HARA = system: HARA
Outline: as §1

NCI-H441 = system: NCI-H441
Outline: as §1

COR-L23 = system: COR-L23
Outline: as §1

NCI-H2087 = system: NCI-H2087
Outline: as §1

H3255 = system: H3255
Outline: as §1

NCI-H3122 = system: NCI-H3122
Outline: as §1

NCI-H1650 = system: NCI-H1650
Outline: as §1

NCI-H2126 = system: NCI-H2126
Outline: as §1

LXF-289 = system: LXF-289
Outline: as §1

HCC-78 = system: HCC-78
Outline: as §1

EPLC-272H = system: EPLC-272H
Outline: as §1

PC-14 = system: PC-14
Outline: as §1

HOP-62 = system: HOP-62
Outline: as §1

NCI-H1666 = system: NCI-H1666
Outline: as §1

Cc1cn(-c2cc(NC(=O)c3ccc(C)c(Nc4nccc(-c5cccnc5)n4)c3)cc(C(F)(F)F)c2)cn1 [Nilotinib] + Cc1cc(Nc2cc(N3CCN(C)CC3)nc(Sc3ccc(NC(=O)C4CC4)cc3)n2)n[nH]1 [Tozasertib] (partner 0.1 µM)
relative viability (NCI-H596; first compound 0.001 µM): 0.799 | relative viability (NCI-H596; first compound 0.003162 µM): 0.972 | relative viability (NCI-H596; first compound 0.01 µM): 1.01 | relative viability (NCI-H596; first compound 0.03162 µM): 0.619 | relative viability (NCI-H596; first compound 0.1 µM): 0.68 | relative viability (NCI-H1793; first compound 0.001 µM): 0.248 | relative viability (NCI-H1793; first compound 0.003162 µM): 0.298 | relative viability (NCI-H1793; first compound 0.01 µM): 0.3 | relative viability (NCI-H1793; first compound 0.03162 µM): 0.306 | relative viability (NCI-H1793; first compound 0.1 µM): 0.296 | relative viability (ChaGo-K-1; first compound 0.001 µM): 0.205 | relative viability (ChaGo-K-1; first compound 0.003162 µM): 0.229 | relative viability (ChaGo-K-1; first compound 0.01 µM): 0.202 | relative viability (ChaGo-K-1; first compound 0.03162 µM): 0.162 | relative viability (ChaGo-K-1; first compound 0.1 µM): 0.138 | relative viability (NCI-H1395; first compound 0.001 µM): 0.691 | relative viability (NCI-H1395; first compound 0.003162 µM): 0.674 | relative viability (NCI-H1395; first compound 0.01 µM): 0.751 | relative viability (NCI-H1395; first compound 0.03162 µM): 0.612 | relative viability (NCI-H1395; first compound 0.1 µM): 0.736 | relative viability (NCI-H1437; first compound 0.001 µM): 0.355 | relative viability (NCI-H1437; first compound 0.003162 µM): 0.499 | relative viability (NCI-H1437; first compound 0.01 µM): 0.4 | relative viability (NCI-H1437; first compound 0.03162 µM): 0.304 | relative viability (NCI-H1437; first compound 0.1 µM): 0.317 | relative viability (NCI-H1944; first compound 0.001 µM): 0.248 | relative viability (NCI-H1944; first compound 0.003162 µM): 0.3 | relative viability (NCI-H1944; first compound 0.01 µM): 0.248 | relative viability (NCI-H1944; first compound 0.03162 µM): 0.197 | relative viability (LCLC-97TM1; first compound 0.001 µM): 0.236 | relative viability (LCLC-97TM1; first compound 0.003162 µM): 0.254 | relative viability (LCLC-97TM1; first compound 0.01 µM): 0.161 | relative viability (LCLC-97TM1; first compound 0.03162 µM): 0.182 | relative viability (LCLC-97TM1; first compound 0.1 µM): 0.217 | relative viability (NCI-H661; first compound 0.001 µM): 0.346 | relative viability (NCI-H661; first compound 0.003162 µM): 0.357 | relative viability (NCI-H661; first compound 0.01 µM): 0.364 | relative viability (NCI-H661; first compound 0.03162 µM): 0.382 | relative viability (NCI-H661; first compound 0.1 µM): 0.355 | relative viability (NCI-H2085; first compound 0.001 µM): 0.616 | relative viability (NCI-H2085; first compound 0.003162 µM): 0.593 | relative viability (NCI-H2085; first compound 0.01 µM): 0.585 | relative viability (NCI-H2085; first compound 0.03162 µM): 0.47 | relative viability (NCI-H2085; first compound 0.1 µM): 0.427 | relative viability (HARA; first compound 0.001 µM): 0.0752 | relative viability (HARA; first compound 0.003162 µM): 0.102 | relative viability (HARA; first compound 0.01 µM): 0.102 | relative viability (HARA; first compound 0.03162 µM): 0.0999 | relative viability (HARA; first compound 0.1 µM): 0.0992 | relative viability (NCI-H441; first compound 0.001 µM): 0.448 | relative viability (NCI-H441; first compound 0.003162 µM): 0.482 | relative viability (NCI-H441; first compound 0.01 µM): 0.44 | relative viability (NCI-H441; first compound 0.03162 µM): 0.429 | relative viability (NCI-H441; first compound 0.1 µM): 0.37 | relative viability (COR-L23; first compound 0.001 µM): 0.143 | relative viability (COR-L23; first compound 0.003162 µM): 0.132 | relative viability (COR-L23; first compound 0.01 µM): 0.134 | relative viability (COR-L23; first compound 0.03162 µM): 0.158 | relative viability (COR-L23; first compound 0.1 µM): 0.126 | relative viability (NCI-H2087; first compound 0.001 µM): 0.195 | relative viability (NCI-H2087; first compound 0.003162 µM): 0.24 | relative viability (NCI-H2087; first compound 0.01 µM): 0.202 | relative viability (NCI-H2087; first compound 0.03162 µM): 0.19 | relative viability (NCI-H2087; first compound 0.1 µM): 0.197 | relative viability (H3255; first compound 0.001 µM): 0.532 | relative viability (H3255; first compound 0.003162 µM): 0.516 | relative viability (H3255; first compound 0.03162 µM): 0.48 | relative viability (H3255; first compound 0.1 µM): 0.717 | relative viability (NCI-H3122; first compound 0.001 µM): 0.364 | relative viability (NCI-H3122; first compound 0.003162 µM): 0.519 | relative viability (NCI-H3122; first compound 0.01 µM): 0.436 | relative viability (NCI-H3122; first compound 0.03162 µM): 0.374 | relative viability (NCI-H3122; first compound 0.1 µM): 0.18 | relative viability (NCI-H1650; first compound 0.001 µM): 0.329 | relative viability (NCI-H1650; first compound 0.003162 µM): 0.355 | relative viability (NCI-H1650; first compound 0.01 µM): 0.324 | relative viability (NCI-H1650; first compound 0.03162 µM): 0.324 | relative viability (NCI-H1650; first compound 0.1 µM): 0.256 | relative viability (NCI-H2126; first compound 0.001 µM): 0.786 | relative viability (NCI-H2126; first compound 0.003162 µM): 0.857 | relative viability (NCI-H2126; first compound 0.01 µM): 0.963 | relative viability (NCI-H2126; first compound 0.03162 µM): 0.599 | relative viability (NCI-H2126; first compound 0.1 µM): 0.438 | relative viability (LXF-289; first compound 0.001 µM): 0.254 | relative viability (LXF-289; first compound 0.003162 µM): 0.189 | relative viability (LXF-289; first compound 0.01 µM): 0.222 | relative viability (LXF-289; first compound 0.03162 µM): 0.127 | relative viability (LXF-289; first compound 0.1 µM): 0.153 | relative viability (HCC-78; first compound 0.001 µM): 0.408 | relative viability (HCC-78; first compound 0.003162 µM): 0.373 | relative viability (HCC-78; first compound 0.01 µM): 0.479 | relative viability (HCC-78; first compound 0.03162 µM): 0.331 | relative viability (HCC-78; first compound 0.1 µM): 0.28 | relative viability (EPLC-272H; first compound 0.001 µM): 0.212 | relative viability (EPLC-272H; first compound 0.003162 µM): 0.18 | relative viability (EPLC-272H; first compound 0.01 µM): 0.251 | relative viability (EPLC-272H; first compound 0.03162 µM): 0.182 | relative viability (EPLC-272H; first compound 0.1 µM): 0.105 | relative viability (PC-14; first compound 0.001 µM): 0.682 | relative viability (PC-14; first compound 0.003162 µM): 0.485 | relative viability (PC-14; first compound 0.01 µM): 0.53 | relative viability (PC-14; first compound 0.03162 µM): 0.519 | relative viability (PC-14; first compound 0.1 µM): 0.615 | relative viability (HOP-62; first compound 0.001 µM): 0.288 | relative viability (HOP-62; first compound 0.01 µM): 0.289 | relative viability (NCI-H1666; first compound 0.001 µM): 0.493 | relative viability (NCI-H1666; first compound 0.003162 µM): 0.566 | relative viability (NCI-H1666; first compound 0.01 µM): 0.531 | relative viability (NCI-H1666; first compound 0.03162 µM): 0.518 | relative viability (NCI-H1666; first compound 0.1 µM): 0.556
